In US8178548B2, “Anti-infective agents and uses thereof” (priority 2007, dated 2012):
Read-outs that look alike come from different tables or passages of the source.

How the values were obtained:
[1] = target: T1, HCV polymerase 1B (Δ21 NS5B, HCV Strain 1B BK) (Hepatitis C virus genotype 1b, UniProt P26663); assay: biochemical
T1 construct: 20 to 50 nM Δ21 NS5B
Method: (§1) Either two-fold serial dilutions (fractional inhibition assay) or a narrower range of dilutions spanning the IC50 of the inhibitor (tight binding assay) of the inhibitors were incubated with 20 mM Tris-Cl pH 7.4, 2 mM MnCl2, 1 mM dithiothreitol, 1 mM ethylene diamine tetraacetic acid (EDTA), 60 to 125 μM GTP and 20 to 50 nM Δ21 NS5B (HCV Strain 1B (BK, Genbank accession number M58335, or H77, Genbank accession number AF011751)) for 15 min at room temperature. The reaction was initiated by the addition of 20 μM CTP, 20 μM ATP, 1 μM ^3H-UTP (10 mCi/umol), 5 nM template RNA and 0.1 U/μl RNase inhibitor (RNasin, Promega), and allowed to proceed for 2 to 4 h at room temperature. Reaction volume was 50 μl. The reaction was terminated by the addition of 1 volume of 4 mM spermine in 10 mM Tris-Cl pH 8.0, 1 mM EDTA. After incubation for at least 15 min at room temperature, the precipitated RNA was captured by filtering through a GF/B filter (Millipore) in a 96 well format. The filter plate was washed three times with 200 μl each of 2 mM spermine, 10 mM Tris-Cl pH 8.0, 1 mM EDTA, and 2 times with ethanol. After air-drying, 30 μl of Microscint 20 scintillation cocktail (Packard) was added to each well, and the retained cpm were determined by scintillation counting. […] Retained cpm were plotted vs. inhibitor concentration and fit to equation 1 using non-linear regression (ref. 1) to obtain the IC50 values: Retained cpm=A[sqrt{(IC50+It−Et)^2+4*IC50*Et}−(IC50+It−Et)]
(§2) Ref. Morrison, J. F. and S. R. Stone. 1985. Approaches to the study and analysis of the inhibition of enzymes by slow- and tight-binding inhibitors. Comments Mol. Cell. Biophys. 2: 347-368.
(§3) The sequence of the template RNA used was: 5′-[…] […] […] […] […] […] […] […] […] […] […] […] […] […] […] […] […]-3′ (SEQ ID NO:1).

[2] = target: T2, HCV polymerase 1A (Δ21 NS5B, H77) (Hepatitis C virus genotype 1a, UniProt P27958); assay: biochemical
T2 construct: 20 to 50 nM Δ21 NS5B
Method: as §1, §2, §3

[3] = system: genotype 1b-Con1 subgenomic replicon cell line; assay: HCV Polymerase Replicon Assay, genotype 1b-Con1 (luciferase reporter); format: cell-based; conditions: read-out: EC50 1b
[4] = system: genotype 1a-H77 subgenomic replicon cell line; assay: HCV Polymerase Replicon Assay, genotype 1a-H77 (luciferase reporter); format: cell-based; conditions: read-out: EC50 1a
[5] = Hepatitis C virus, 72 h, replicon 1b-Con1, luciferase, three days
[6] = Hepatitis C virus, 72 h, replicon 1a-H77, luciferase, three days

T1 sequence (P26663 2420-2989, stated change not applied): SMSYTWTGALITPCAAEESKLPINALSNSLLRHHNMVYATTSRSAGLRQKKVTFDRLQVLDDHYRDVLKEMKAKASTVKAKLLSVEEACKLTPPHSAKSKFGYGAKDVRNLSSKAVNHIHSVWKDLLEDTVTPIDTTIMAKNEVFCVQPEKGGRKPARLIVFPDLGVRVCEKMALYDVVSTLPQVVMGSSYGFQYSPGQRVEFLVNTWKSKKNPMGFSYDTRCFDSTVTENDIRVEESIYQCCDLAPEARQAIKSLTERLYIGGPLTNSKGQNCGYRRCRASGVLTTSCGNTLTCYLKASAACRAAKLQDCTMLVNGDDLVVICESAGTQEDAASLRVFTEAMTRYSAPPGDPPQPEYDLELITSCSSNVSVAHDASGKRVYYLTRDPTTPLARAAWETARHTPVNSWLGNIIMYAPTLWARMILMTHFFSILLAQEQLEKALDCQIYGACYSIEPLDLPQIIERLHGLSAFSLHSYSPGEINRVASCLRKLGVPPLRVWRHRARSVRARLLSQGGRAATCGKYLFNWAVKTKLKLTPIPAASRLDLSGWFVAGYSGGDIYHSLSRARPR
T2 sequence (P27958 2421-2990, stated change not applied): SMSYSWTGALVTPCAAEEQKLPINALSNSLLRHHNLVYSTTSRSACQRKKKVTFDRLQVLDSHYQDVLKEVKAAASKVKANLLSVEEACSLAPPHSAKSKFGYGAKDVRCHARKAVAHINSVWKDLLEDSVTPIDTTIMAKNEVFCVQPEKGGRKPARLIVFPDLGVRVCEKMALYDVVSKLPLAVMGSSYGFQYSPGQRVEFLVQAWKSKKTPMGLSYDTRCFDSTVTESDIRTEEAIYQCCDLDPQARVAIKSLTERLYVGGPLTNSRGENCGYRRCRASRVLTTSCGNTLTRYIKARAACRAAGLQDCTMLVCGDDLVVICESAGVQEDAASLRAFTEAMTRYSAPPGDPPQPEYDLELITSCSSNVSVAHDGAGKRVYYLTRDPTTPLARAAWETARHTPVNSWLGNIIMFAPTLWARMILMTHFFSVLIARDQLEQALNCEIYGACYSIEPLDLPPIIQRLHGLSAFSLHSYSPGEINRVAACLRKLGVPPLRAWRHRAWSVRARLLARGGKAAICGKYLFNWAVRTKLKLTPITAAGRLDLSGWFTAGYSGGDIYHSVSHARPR

COc1c(/C=C(\C)c2ccc([N+](=O)[O-])cc2)cc(N2CCC(=O)NC2=O)cc1C(C)(C)C [IA-L1-1.24, 1-{3-tert-butyl-4-methoxy-5-[(E)-2-(4-nitro-phenyl)-propenyl]-phenyl}-dihydro-pyrimidine-2,4-dione]
IC50 [1]: > 1000 nM | IC50 [2]: > 1000 nM | EC50 ([3]; Hepatitis C virus, 72 h): > 1000 nM | EC50 ([4]; Hepatitis C virus, 72 h): > 1000 nM

COc1c(/C=C/c2ccc(NS(C)(=O)=O)c(F)c2)cc(N2CCC(=O)NC2=O)cc1C(C)(C)C [IA-L1-1.26, (E)-N-(4-(3-tert-butyl-5-(2,4-dioxotetrahydropyrimidin-1(2H)-yl)-2-methoxystyryl)-2-fluorophenyl)methanesulfonamide]
IC50 [1]: 10 to 100 nM | IC50 [2]: 10 to 100 nM | EC50 ([3]; Hepatitis C virus, 72 h): 10 to 100 nM | EC50 ([4]; Hepatitis C virus, 72 h): 10 to 100 nM

COc1cc(NS(C)(=O)=O)ccc1/C=C/c1cc(N2CCC(=O)NC2=O)cc(C(C)(C)C)c1OC [IA-L1-1.27, N-(4-{(E)-2-[3-tert-Butyl-5-(dioxo-tetrahydro-pyrimidin-1-yl)-2-methoxy-phenyl]-vinyl}-3-methoxy-phenyl)-methanesulfonamide]
IC50 ([1]; HCV polymerase 1b, read-out: IC50 1b): 10 to 100 nM | IC50 ([2]; HCV polymerase 1a, read-out: IC50 1a): < 10 nM | EC50 ([3]; replicon 1b-Con1, luciferase, three days): < 10 nM | EC50 ([4]; replicon 1a-H77, luciferase, three days): 10 to 100 nM

COc1c(CCc2ccc(NS(C)(=O)=O)cc2)cc(N2CCC(=O)NC2=O)cc1C(C)(C)C [IA-L5-2-1.1, N-(4-(3-tert-butyl-5-(2,4-dioxotetrahydropyrimidin-1(2H)-yl)-2-methoxyphenethyl)phenyl)methanesulfonamide]
IC50 [1]: 10 to 100 nM | IC50 [2]: 10 to 100 nM | EC50 [3, 5]: 10 to 100 nM | EC50 [4, 6]: 100 to 1000 nM

CC(C)(C)c1cc(CCc2ccc(NS(C)(=O)=O)cc2)cc(N2CCC(=O)NC2=O)c1 [IA-L5-2-1.2, N-(4-(3-tert-butyl-5-(2,4-dioxotetrahydropyrimidin-1(2H)-yl)phenethyl)phenyl)methane sulfonamide]
IC50 [1]: 10 to 100 nM | IC50 [2]: 10 to 100 nM | EC50 [3, 5]: 100 to 1000 nM | EC50 [4, 6]: 100 to 1000 nM

COc1c(C2CC2c2ccc(NS(C)(=O)=O)cc2)cc(N2CCC(=O)NC2=O)cc1C(C)(C)C (stereo not shown) [IA-L8-1.1, N-(4-(2-(3-tert-butyl-5-(2,4-dioxotetrahydropyrimidin-1(2H)-yl)-2-methoxyphenyl)cyclopropyl)phenyl)methanesulfonamide]
IC50 [1]: 100 to 1000 nM | IC50 [2]: 100 to 1000 nM | EC50 [3, 5]: 100 to 1000 nM | EC50 [4, 6]: 100 to 1000 nM

COc1c(/C=C/c2ccc(NS(C)(=O)=O)cc2)cc(-n2ccc(=O)[nH]c2=O)cc1C(C)(C)C [IB-L1-1.1, (E)-N-(4-(3-tert-butyl-5-(2,4-dioxo-3,4-dihydropyrimidin-1(2H)-yl)-2-methoxystyryl)phenyl)methanesulfonamide]
IC50 [1]: < 10 nM | IC50 [2]: < 10 nM | EC50 ([3]; Hepatitis C virus, 72 h): < 10 nM | EC50 ([4]; Hepatitis C virus, 72 h): < 10 nM

COc1c(/C=C/c2ccc(NS(C)(=O)=O)cc2C(=O)O)cc(-n2ccc(=O)[nH]c2=O)cc1C(C)(C)C [IB-L1-1.4, (E)-2-(3-tert-butyl-5-(2,4-dioxo-3,4-dihydropyrimidin-1(2H)-yl)-2-methoxystyryl)-5-(methylsulfonamido)benzoic Acid]
IC50 [1]: < 10 nM | IC50 [2]: < 10 nM | EC50 ([3]; Hepatitis C virus, 72 h): < 10 nM | EC50 ([4]; Hepatitis C virus, 72 h): 10 to 100 nM

COc1c(/C=C/c2ccc(NS(C)(=O)=O)c(F)c2)cc(-n2ccc(=O)[nH]c2=O)cc1C(C)(C)C [IB-L1-1.5, (E)-N-(4-(3-tert-butyl-5-(2,4-dioxo-3,4-dihydropyrimidin-1(2H)-yl)-2-methoxystyryl)-2-fluorophenyl)methanesulfonamide]
IC50 [1]: < 10 nM | IC50 [2]: < 10 nM | EC50 ([3]; Hepatitis C virus, 72 h): < 10 nM | EC50 ([4]; Hepatitis C virus, 72 h): 10 to 100 nM

COc1c(/C=C/c2ccc(NS(C)(=O)=O)cc2C=O)cc(-n2ccc(=O)[nH]c2=O)cc1C(C)(C)C [IB-L1-1.6, N-(4-{(E)-2-[3-tert-Butyl-5-(2,4-dioxo-3,4-dihydro-2H-pyrimidin-1-yl)-2-methoxy-phenyl]-vinyl}-3-formyl-phenyl)-methanesulfonamide]
IC50 [1]: 10 to 100 nM | IC50 [2]: < 10 nM | EC50 ([3]; Hepatitis C virus, 72 h): < 10 nM | EC50 ([4]; Hepatitis C virus, 72 h): < 10 nM
